{
  "source": "patent US20230146455A1",
  "about": "“TREATMENT OF INFLAMMATORY DISEASES WITH PEPTIDES AND PHARMACEUTICAL COMPOSITIONS” (Yuyu Pharma, Inc., priority 2020, published 2023)",
  "test_system": "Fas Ligand",
  "assay": "Example 9 Luminex, LPS hPBMCs: Fas Ligand",
  "format": "cell-based, human",
  "conditions": "for Fas Ligand Concentration / Fas Ligand conc/live cell / MFI, bead Fas Ligand: single replicates",
  "description": "Treatment Human PBMCs were pretreated with YY-101, YDE-011 and YDE-043 or reference compound; Xiidra® at various concentration (ranging from 1 nM to 100 uM) for 2 h before stimulation. An equal volume of 0.5% DMSO was used as a vehicle control. Then, the cells were treated with LPS at 5 ug/ml. The supernatants from treated cells were harvested at 24 h and placed in a 96 well for Luminex cytokine & chemokine profiling using a Luminex 200 multiplex assay (Luminex; R&D system, USA).\nThe main study arm with triplicate wells per group in a 24-well plate: • 1. Blank • 2. PBMC: 0.5% DMSO • 3. PBMC+LPS (5 ug/ml) • 4. PBMC+YY-101 100 uM • 5. PBMC+YY-101 10 uM • 6. PBMC+YY-101 1 uM • 7. PBMC+YY-101 0.1 uM • 8. PBMC+YY-101 0.01 uM • 9. PBMC+LPS (5 ug/ml)+Xiidra®100 uM • 10. PBMC+LPS (5 ug/ml)+Xiidra® 10 uM • 11. PBMC+LPS (5 ug/ml)+Xiidra® 1 uM • 12. PBMC+LPS (5 ug/ml)+Xiidra®0.1 uM • 13. PBMC+LPS (5 ug/ml)+Xiidra®0.01 uM • 14. PBMC+LPS (5 ug/ml)+Xiidra®0.001 uM • 15. PBMC+LPS (5 ug/ml)+YY-101 100 uM • 16. PBMC+LPS (5 ug/ml)+YY-101 10 uM • 17. PBMC+LPS (5 ug/ml)+YY-101 1 uM • 18. PBMC+LPS (5 ug/ml)+YY-101 0.1 uM • 19. PBMC+LPS (5 ug/ml)+YY-101 0.01 uM • 20. PBMC+LPS (5 ug/ml)+YY-101 0.001 uM • 21. PBMC+LPS (5 ug/ml)+YDE-011 100 uM • 22. PBMC+LPS (5 ug/ml)+YDE-011 10 uM • 23. PBMC+LPS (5 ug/ml)+YDE-011 1 uM • 24. PBMC+LPS (5 ug/ml)+YDE-011 0.1 uM • 25. PBMC+LPS (5 ug/ml)+YDE-011 0.01 uM • 26. PBMC+LPS (5 ug/ml)+YDE-011 0.001 uM • 27. PBMC+LPS (5 ug/ml)+YDE-043 100 uM • 28. PBMC+LPS (5 ug/ml)+YDE-043 10 uM • 29. PBMC+LPS (5 ug/ml)+YDE-043 1 uM • 30. PBMC+LPS (5 ug/ml)+YDE-043 0.1 uM • 31. PBMC+LPS (5 ug/ml)+YDE-043 0.01 uM • 32. PBMC+LPS (5 ug/ml)+YDE-043 0.001 uM\nMultiplex assay was used to measure 30 cytokines and chemokines. The 1:2, 1:10 and 1:200 diluted cell supernatant and serial dilution of the standard were dispensed into a 96 well plate at 50 ul/well. Then, the pre-mixed cocktail of antibody-coated magnetic beads was dispensed at 50 ul/well and incubated at room temperature for 2 h in a horizontal orbital microplate shaker at 800±500 rpm. The beads were washed using a magnetic device to prevent loss. The biotin-antibody was dispensed in 50 ul of each well and incubated at room temperature for 1 h in a shaker at 800±500 rpm. After washing, streptavidin-PE was added at 50 ul/well and incubated at room temperature for 30 min in a shaker under the same conditions. Finally, after washing, wash buffer (100 ul/well) was added to the plate and incubated in a shaker for 2 min. The Luminex™ 200 setting were set according to the manufacturer's protocol. The data was calculated with a standard five-parameter logistic nonlinear regression analysis of the data (xPonent software 4.2, USA). The levels of cytokine/chemokine are normalized to the live cell counts (1×10^5 cells/mL) and presented as concentrations per mL (pg/mL or ng/mL).",
  "key": {"[1]": {"conditions": "PBMC + LPS(5 ug/ml) + test article 0.001 uM"}, "[2]": {"conditions": "PBMC + LPS(5 ug/ml) + test article 0.01 uM"}, "[3]": {"conditions": "PBMC + LPS(5 ug/ml) + test article 0.1 uM"}, "[4]": {"conditions": "PBMC + LPS(5 ug/ml) + test article 1 uM"}, "[5]": {"conditions": "PBMC + LPS(5 ug/ml) + test article 10 uM"}, "[6]": {"conditions": "PBMC + LPS(5 ug/ml) + test article 100 uM"}},
  "note": "Where “and” joins values, the source holds several entries; their conditions need not be identical. Identical values can stand only once. Where a SMILES comes first, the peptide text is derived from it. [ ]: non-standard residue; d: D form. Hyp = O=C(O)[C@@H]1C[C@@H](O)CN1",
  "data": [
    {"smiles": "CC(C)C[C@H](NC(=O)[C@H](CCC(N)=O)NC(=O)CNC(=O)[C@@H]1C[C@@H](O)CN1)C(=O)NCC(=O)O", "note": "[YDE-043] (H-[Hyp]GQLG-OH; N-terminus and C-terminus assumed)", "values": [
      {"measurement": "Fas Ligand Concentration, Mean", "setting": "[1]", "result": 16.8, "unit": "pg/mL"},
      {"measurement": "Fas Ligand conc/live cell, Mean", "setting": "[1]", "result": 3.4, "unit": "pg/10^5"},
      {"measurement": "MFI, bead Fas Ligand, Mean", "setting": "[1]", "result": 22.7},
      {"measurement": "Fas Ligand Concentration", "setting": "[1]", "result": "17.1 pg/mL and 20.4 pg/mL and 13.1 pg/mL"},
      {"measurement": "Fas Ligand conc/live cell", "setting": "[1]", "result": "3.9 pg/10^5 and 3.4 pg/10^5 and 2.8 pg/10^5"},
      {"measurement": "MFI, bead Fas Ligand", "setting": "[1]", "result": "23.0 and 28.0 and 17.0"},
      {"measurement": "Fas Ligand Concentration, Mean", "setting": "[2]", "result": 21.9, "unit": "pg/mL"},
      {"measurement": "Fas Ligand conc/live cell, Mean", "setting": "[2]", "result": 4.3, "unit": "pg/10^5"},
      {"measurement": "MFI, bead Fas Ligand, Mean", "setting": "[2]", "result": 30.2},
      {"measurement": "Fas Ligand Concentration", "setting": "[2]", "result": "19.1 pg/mL and 15.7 pg/mL and 31.0 pg/mL"},
      {"measurement": "Fas Ligand conc/live cell", "setting": "[2]", "result": "4.2 pg/10^5 and 2.4 pg/10^5 and 6.2 pg/10^5"},
      {"measurement": "MFI, bead Fas Ligand", "setting": "[2]", "result": "26.0 and 21.0 and 43.5"},
      {"measurement": "Fas Ligand Concentration, Mean", "setting": "[3]", "result": 13.2, "unit": "pg/mL"},
      {"measurement": "Fas Ligand conc/live cell, Mean", "setting": "[3]", "result": 2.5, "unit": "pg/10^5"},
      {"measurement": "MFI, bead Fas Ligand, Mean", "setting": "[3]", "result": 17.2},
      {"measurement": "Fas Ligand Concentration", "setting": "[3]", "result": "14.4 pg/mL and 12.7 pg/mL and 12.4 pg/mL"},
      {"measurement": "Fas Ligand conc/live cell", "setting": "[3]", "result": "2.9 pg/10^5 and 2.3 pg/10^5 and 2.2 pg/10^5"},
      {"measurement": "MFI, bead Fas Ligand", "setting": "[3]", "result": "19.0 and 16.5 and 16.0"},
      {"measurement": "Fas Ligand Concentration, Mean", "setting": "[4]", "result": 16.6, "unit": "pg/mL"},
      {"measurement": "Fas Ligand conc/live cell, Mean", "setting": "[4]", "result": 3.2, "unit": "pg/10^5"},
      {"measurement": "MFI, bead Fas Ligand, Mean", "setting": "[4]", "result": 22.3},
      {"measurement": "Fas Ligand Concentration", "setting": "[4]", "result": "13.7 pg/mL and 15.7 pg/mL and 20.4 pg/mL"},
      {"measurement": "Fas Ligand conc/live cell", "setting": "[4]", "result": "2.4 pg/10^5 and 3.3 pg/10^5 and 3.9 pg/10^5"},
      {"measurement": "MFI, bead Fas Ligand", "setting": "[4]", "result": "18.0 and 21.0 and 28.0"},
      {"measurement": "Fas Ligand Concentration, Mean", "setting": "[5]", "result": 16.4, "unit": "pg/mL"},
      {"measurement": "Fas Ligand conc/live cell, Mean", "setting": "[5]", "result": 3.0, "unit": "pg/10^5"},
      {"measurement": "MFI, bead Fas Ligand, Mean", "setting": "[5]", "result": 22.0},
      {"measurement": "Fas Ligand Concentration", "setting": "[5]", "result": "16.4 pg/mL and 17.1 pg/mL and 15.7 pg/mL"},
      {"measurement": "Fas Ligand conc/live cell", "setting": "[5]", "result": "3.2 pg/10^5 (2×) and 2.8 pg/10^5"},
      {"measurement": "MFI, bead Fas Ligand", "setting": "[5]", "result": "22.0 and 23.0 and 21.0"},
      {"measurement": "Fas Ligand Concentration, Mean", "setting": "[6]", "result": 13.2, "unit": "pg/mL"},
      {"measurement": "Fas Ligand conc/live cell, Mean", "setting": "[6]", "result": 2.1, "unit": "pg/10^5"},
      {"measurement": "MFI, bead Fas Ligand, Mean", "setting": "[6]", "result": 17.3},
      {"measurement": "Fas Ligand Concentration", "setting": "[6]", "result": "15.0 pg/mL and 11.4 pg/mL"},
      {"measurement": "Fas Ligand conc/live cell", "setting": "[6]", "result": "2.4 pg/10^5 and 1.8 pg/10^5"},
      {"measurement": "MFI, bead Fas Ligand", "setting": "[6]", "result": "20.0 and 14.5"}
    ]}
  ]
}
